# Data taken from patent US8029553B2, “Portable laser and process for pain research” (priority 2004, dated 2011).
# Entries after “also recorded” stand apart in the source; their conditions may differ.
# Assays:
# C fibers = assay: Threshold pulse duration for hot pain by 980 nm diode laser, stimulation of C fibers; assay type: in vivo, human; conditions: healthy volunteer affected by topical capsaicin
# Procedure: Subjects: A chronic pain patient with hypersensitivity and a healthy volunteer were tested. Both subjects gave informed consent and the experiments were approved by the local institutional review board. The hairy skin of left hand was used for both volunteers. In preparing the subjects testing, they were asked to respond orally immediately after they perceived any threshold sensation and/or to interrupt lasing pulse by pressing STOP button. They then described the level and type of evoked sensation, location of sensation, how long the sensation lasted, whether the sensation was single (monomodal) sensation or if there were more than one evoked sensations by a single stimulation. Afterwards, the threshold pulse was applied 3 times to different areas with interval of ˜3 min or after the previous sensation (pain) had disappeared. The appearance redness was an indication of skin irritation. Step 1: To test duration of pulse that evoked threshold warmth sensation only, the output power was set to 1.5 W, beam size adjusted to 5 mm. The pulse was applied to the skin. When the volunteer reported warmth (pain) sensation the lasing was stopped. […] The pulse duration for tolerance for hot pain was 2000 ms. […] When this button was pushed the command “stop lasing” was activated, duration of applied pulse was measured and it was indicated on the screen of PC connected to the device by RS232 interface. […]
# TRPV1 = target: T1, TRPV1 (Rattus norvegicus, UniProt O35433); assay: Whole cell patch recording of diode laser evoked inward currents in TRPV1 positive (type 2) DRG cells; assay type: cell-based; conditions: capsazepine 10 uM, close superfusion, two minute application; laser pulses 20 ms and 2.41 W (1200 mA)
# T1 construct: DRG cells TRPV1 positive cells (Type 2) and TRPV2 positive cells (Type 4) were irradiated; from tissue; host or cells: primary neurons dissociated from rat dorsal root ganglia (type 2 cells)
# T1 sequence (O35433 whole entry, the tested form may be a part): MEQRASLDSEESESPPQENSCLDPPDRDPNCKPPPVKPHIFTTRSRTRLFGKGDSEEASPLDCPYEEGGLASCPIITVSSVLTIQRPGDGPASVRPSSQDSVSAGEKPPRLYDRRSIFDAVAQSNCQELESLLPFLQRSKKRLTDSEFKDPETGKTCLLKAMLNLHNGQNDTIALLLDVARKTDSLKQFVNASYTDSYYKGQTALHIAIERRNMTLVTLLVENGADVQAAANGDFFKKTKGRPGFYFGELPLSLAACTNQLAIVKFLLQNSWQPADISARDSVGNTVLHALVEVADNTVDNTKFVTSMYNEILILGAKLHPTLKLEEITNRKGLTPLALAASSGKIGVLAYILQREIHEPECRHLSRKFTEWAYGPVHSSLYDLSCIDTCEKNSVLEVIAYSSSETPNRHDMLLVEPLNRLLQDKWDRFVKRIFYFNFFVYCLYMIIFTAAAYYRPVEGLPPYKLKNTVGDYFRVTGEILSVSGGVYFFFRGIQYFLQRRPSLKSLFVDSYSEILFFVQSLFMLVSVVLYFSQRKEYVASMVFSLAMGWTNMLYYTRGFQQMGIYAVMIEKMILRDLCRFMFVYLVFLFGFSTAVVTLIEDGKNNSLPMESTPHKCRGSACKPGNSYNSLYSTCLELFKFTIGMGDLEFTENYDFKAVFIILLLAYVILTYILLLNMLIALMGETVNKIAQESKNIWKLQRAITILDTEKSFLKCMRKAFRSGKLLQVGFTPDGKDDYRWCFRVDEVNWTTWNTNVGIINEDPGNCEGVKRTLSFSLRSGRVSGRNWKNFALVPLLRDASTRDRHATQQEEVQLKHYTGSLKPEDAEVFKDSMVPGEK
# Procedure: Rats were anesthetized with halothane. Following decapitation, the spinal cord was rapidly removed, and the dorsal root ganglia were dissected free. Dissected ganglia were placed in a heated bath (35° C. for 70 min) containing dispase II and collagenase (2 mg/ml; Sigma type 1). Following wash and trituration, recovered cells were plated on 10 polylysine coated, 35 mm Petri dishes. Cells were bathed continuously in a rat Tyrode's solution containing (mM): 140 NaCl, 4 KCl, 2 MgCl2, 2 CaCl2, 10 glucose, and 10 HEPES, pH adjusted to 7.4 with NaOH. Only one cell was used from each dish. Bath temperature was maintained at 32° C. by a feedback-controlled bath heater (TCbip; Cell Microsystems).
# Electrodes were prepared (2-4 MΩ) from glass pipettes using a Brown and Flaming type horizontal puller (Sutter model P87). Whole cell recordings were made with an Axopatch 200B (Axon Instruments). Stimuli were controlled and digital records captured with pClamp 8.2 software and Digidata 1322A A/D converter (Axon Instruments). Series resistance (Rs) was compensated 40-60% with Axopatch 200B compensation circuitry. Whole cell resistance and capacitance was determined by Clampex 8.2 software utility. A liquid junction potential of approximately 4 mV was not corrected.
# Recordings were made from cells with diameters between 25 and 45 μm.
# Lass 10 M investigational diode laser (Lasmed LLC) was used in all studies. […]
# C fiber mediated pain = conditions: background statement; cited from earlier work
smiles,measurement,setting,value
COc1cc(CNC(=O)CCCC/C=C/C(C)C)ccc1O [Capsaicin],threshold pulse duration by reflex time monitored with infrared CCD camera,"C fibers; 1.5 W, 5 mm, without delay of individual reaction (1270 ms without capsaicin)",650 ms
same,threshold pulse duration for hot pain,"C fibers; output power 1.5 W, beam size 5 mm, hairy skin of left hand, lasing stopped by volunteer (1300 ms without capsaicin)",800 ms
Oc1cc2c(cc1O)CN(C(=S)NCCc1ccc(Cl)cc1)CCC2 [capsazepine],currents evoked by 980 nm stimuli,TRPV1,dramatically reduced; also recorded: reduced currents
CN1CC[C@]23c4c5ccc(O)c4O[C@H]2[C@@H](O)C=C[C@H]3[C@H]1C5 [morphine],effectiveness in inhibiting C fiber mediated pain compared with A delta fiber mediated pain,C fiber mediated pain,much more effective
